Experimental data as given in patent US20080039499A1, “Chemical Compounds” (priority 2004, published 2008).
pEC50: −log10 of the molar value.

Tested on: MCP-1 Mediated Calcium Flux in THP-1 Cells
Assay: MCP-1 mediated calcium flux in THP-1 cells (FLIPR)
Format: cell-based, human
Settings: stimulation of THP-1 cells; from dose response curves; read-out: approximate EC50 of hMCP-1 for rise in [Ca2+]i
Procedure: a) MCP-1 Mediated Calcium Flux in THP-1 Cells
The human monocytic cell line THP-1 was grown in a synthetic cell culture medium RPMI 1640 supplemented with 10% foetal calf serum, 6 mM glutainine and Penicillin-Streptomycin (at 50 IU/ml penicillin, 50 μg streptomycin/ml, Gibco BRL). THP-1 cells were washed in assay buffer comprising of HBSS with Ca^2+ and Mg^2+ (without phenol red) (Gibco BRL)+20 mM HEPES+0.71 mg/ml Propenecid+2 mls/litre CaCl2 1M (BDH)+0.3 mg/ml BSA (Sigma) pH 7.4 and resuspended in the same buffer at a density of 1×10^6 cells/ml. The cells were then loaded with assay buffer+[…] FLUO-4 (molecular probes) for 40 min at 37° C., washed twice in assay buffer, and resuspended at 2×10^5 cells/ml. 100 μl of the cell suspension was added to the wells of black clear-bottomed 96 well plates, to give 2×10^4 cells/well. Cells were pelleted by centrifugation and washed with assay buffer. 100 ul of buffer+50 ul of compound was added to wells and incubated for 20 mins at (37° C.). Fluorescence was recorded using a FLIPR (FLuorometric Imaging Plate Reader—Molecular Devices). Cells were stimulated by addition of hMCP-1 to the wells.
Stimulation of THP-1 cells with hMCP-1 induced a rapid, transient rise in [Ca^2+]i in a specific and dose dependent manner. Dose response curves indicated an approximate EC50 of 4 nm. […]

Question: How did the pEC50 turn out when “hMCP-1: human Monocyte chemoattractant protein-1, a C—C chemokine and CCR2 ligand, used to stimulate THP-1 cells” was run?
Answer: ~8.40
